Laboratory results taken from patent US20230416239A1, “COMPOUNDS AND METHODS FOR TREATING A CYTOKINE-MEDIATED DISEASE” (CONSERVATOIRE NATIONAL DES ARTS ET MÉTIERS, priority 2020, published 2023).

Tests used:
IL-4 = target: T1, IL-4 (Homo sapiens, UniProt P05112); experiment: Immunoassay binding test, IL-4; conditions: for IC50: IL-4 400 ng/ml, receptor 100 ng/ml, read-out: BINDING IL4 IC50
T1 sequence (P05112 25-153): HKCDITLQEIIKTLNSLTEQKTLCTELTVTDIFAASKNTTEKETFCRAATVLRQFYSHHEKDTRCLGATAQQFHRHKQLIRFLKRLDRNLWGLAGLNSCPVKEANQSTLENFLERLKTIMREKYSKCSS
Method: (§1) Microtiter plates (96 wells) are covered with 100 μl of receptor per well, and incubated overnight at 4° C. The following day, after 2 washes in PBS/Tween20, the plates are saturated with 150 μl of PBS/BSA 2% per well, for 2 h at 37° C. Synthetic compounds are diluted in series (final concentrations: 100 to 0.78 μM) then a fixed amount of cytokine in PBS/BSA 1% is added to the compounds, in a final volume of 120 μl per well. […] The cytokine is diluted in series (six concentrations) in a final volume of 120 μl per well. The cytokine is used in the absence of small molecule as well as the range of SPD304 as positive controls and the absence of cytokine and synthetic molecule as negative control. The different mixtures are incubated for 2 h at 37° C. 100 μl of each mixture are then transferred to the microtiter plate, respecting the plate plan previously defined and incubated overnight at 4° C. After three washes, 100 μl of biotinylated anti-cytokine secondary antibody are added to each well, then incubated for 2 h at 37° C. After three washes, 100 μl of Avidin-HRP (1/500th dilution) are added and incubated for 30 minutes at 37° C. […] The plates are then read with a spectrophotometer at 450 nm, measuring the optical density for each well.
(§2) This binding test is carried out with different cytokines: TNFa, IL-4, IL-6 and IL-13. For IL-6, the incubation of molecules with the cytokine also requires the presence of IL-6Ra at a final concentration of 200 ng/ml.
(§3) The final concentrations used for each of the cytokines are presented below: […]

IL-6 = IL-6 (Homo sapiens, UniProt P05231); experiment: Immunoassay binding test, IL-6 (gp130 receptor, IL-6Ra present); conditions: IL-6Ra 200 ng/ml
Sequence of IL-6 (P05231 30-212, species assumed): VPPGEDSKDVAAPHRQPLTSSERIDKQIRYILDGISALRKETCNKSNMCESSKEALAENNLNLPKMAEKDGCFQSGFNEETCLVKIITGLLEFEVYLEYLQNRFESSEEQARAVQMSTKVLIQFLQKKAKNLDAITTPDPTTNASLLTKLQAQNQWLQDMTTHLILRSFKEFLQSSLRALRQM
Method: as §1, §2, §3

TNFa/TNFRI interaction = TNFa/TNFRI interaction (Homo sapiens, UniProt P01375); experiment: TNFa/TNFRI interaction displacement test; format: binding; conditions: for Displacement (%): compounds at 50 μM, human TNFRI 100 ng/ml; for Displacement EC50 TNFa in presence of compound: Difference: Compound EC50 minus SPD304 EC50;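 as to Displacement EC50 TNFa in presence of compound: Difference: SPD304 reference at 20 µM final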
Sequence of TNFa/TNFRI interaction (P01375 77-233 limits assumed): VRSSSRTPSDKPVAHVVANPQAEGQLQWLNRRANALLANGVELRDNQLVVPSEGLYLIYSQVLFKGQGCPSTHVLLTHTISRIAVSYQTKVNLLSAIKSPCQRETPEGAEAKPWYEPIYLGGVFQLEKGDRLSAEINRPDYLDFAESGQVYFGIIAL
Method: Microtiter plates (96 wells) are covered with 100 μl per well of human TNFRI, at a concentration of 100 ng/ml, then incubated overnight at 4° C. The following day, after two washes in PBS/Tween20, the plates are saturated with 150 μl of PBS/BSA 2% for 2 h at 37° C.
100 μl of each mixture are then transferred to the microtiter plate, respecting the established plate plan and incubated overnight at 4° C.
After three washes, 100 μl of biotinylated anti-cytokine secondary antibody are added to each well and incubated for 2 h at 37° C. After three washes, 100 Avl Avidin-HRP (dilution 1/500th) are added and incubated for 30 minutes at 37° C. […] The plates are then read with a spectrophotometer at 450 nm, measuring the optical density (OD) for each well.

IL-13 = IL-13 (Homo sapiens, UniProt P35225); experiment: Immunoassay binding test, IL-13; conditions: for IC50: IL-13 400 ng/ml, receptor 100 ng/ml, read-out: BINDING IL13 IC50
Sequence of IL-13 (P35225 25-146, species assumed): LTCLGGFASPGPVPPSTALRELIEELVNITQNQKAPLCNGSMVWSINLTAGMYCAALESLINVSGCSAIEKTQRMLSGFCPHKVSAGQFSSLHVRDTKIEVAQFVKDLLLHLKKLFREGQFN
Method: as §1, with “The cytokine is used in the absence of small molecule as well as the range of SPD304 as positive controls and the absence of cytokine and synthetic molecule as negative control.” left out
as §2, §3

TNFα = TNFα (Homo sapiens, UniProt P01375); experiment: Immunoassay binding test, TNFa; conditions: compounds 100 to 0.78 μM; TNFα 10 ng/ml, receptor 100 ng/ml; read-out: BINDING TNF IC50
Sequence of TNFα (P01375 77-233 limits assumed, species assumed): as the sequence (P01375 77-233 limits assumed) above
Method: as §1, with “C.” for “C. Synthetic compounds are diluted in series (final concentrations: 100 to 0.78 μM) then a fixed amount of cytokine in PBS/BSA 1% is added to the compounds, in a final volume of 120 μl per well.”, “The cytokine is used in the absence of small molecule as well as the range of SPD304 as positive controls and the absence of cytokine and synthetic molecule as negative control.” left out
as §2, §3

| Compound | BINDING IL4 % Neutra at 100 μM (IL-4) [%] | IC50 (IL-4) [µM] | BINDING IL6 % Neutra at 100 μM (IL-6) [%] | Displacement (%) (TNFa/TNFRI interaction) | BINDING IL13 % Neutra at 100 μM (IL-13) [%] | IC50 (IL-13) [µM] | IC50 (TNFα) [µM] | Displacement EC50 TNFa in presence of compound: Difference (TNFa/TNFRI interaction) [ng/mL] |
| --- | --- | --- | --- | --- | --- | --- | --- | --- |
| CN1CCN(S(=O)(=O)n2cc(CN(CCCCN(C)C3CCCCC3)Cc3cccnc3F)c3ccccc32)CC1 [Compound 92] | 92.3 | 7.7 | 2 | 117 | 72.0 | > 50 | 8.4 |  |
| CN(CCCCCN(Cc1cccnc1F)Cc1cn(S(=O)(=O)c2ccccc2)c2ccccc12)C1CCCCC1 [Compound 52, N1-cyclohexyl-N5-((2-fluoropyridin-3-yl)methyl)-N1-methyl-N5-((1-(phenylsulfonyl)-1H-indol-3-yl)methyl)pentane-1,5-diamine] | 91.7 | 5 | 0 | 145 | 88.1 | 15.8 | 9.1 |  |
| FC(F)(F)c1cccc(-n2cc(CN(Cc3ccncc3)CC3CCCN(C4CCCCC4)C3)c3ccccc32)c1 (centres unmarked) [Compound 6] | 95.7 | 3.6 | 8.7 | 153 | 98.6 | 3.1 | 16.6 | 3.4 |
| CN(CCCN(Cc1cccnc1)Cc1cn(S(=O)(=O)c2ccccc2)c2ccccc12)C1CCCCC1 [Compound 9] | 94.4 | 8 | 21 | 175 | 59.7 | > 50 | 7.3 | 4.3 |
| Fc1cc(CN(Cc2cn(-c3cccc(C(F)(F)F)c3)c3ccccc23)CC2CCCN(C3CCCCC3)C2)ccn1 (centres unmarked) [Compound 20] | 99.5 | 4.8 | 18.5 | 88 | 97.5 | 6.2 | 19.7 |  |
| O=[N+]([O-])c1ccccc1S(=O)(=O)NCCCN(Cc1cccnc1)Cc1cn(S(=O)(=O)c2ccccc2)c2ccccc12 [Compound 60] | 36.4 |  | 0 | 2 | 0 |  | > 50 |  |
| CN(CCCCN(Cc1cccnc1F)Cc1cn(S(=O)(=O)c2ccccc2)c2ccccc12)C1CCC1 [Compound 70, N′-cyclobutyl-N^4-((2-fluoropyridin-3-yl)methyl)-N′-methyl-N^4-((1-(phenylsulfonyl)-1H-indol-3-yl)methyl)butane-1,4-diamine] | 92.4 | 13.5 | 1 | 126 | 69.6 | > 100 | 11.5 |  |
| CCCCN(CCOCCN(Cc1cccnc1F)Cc1cn(S(=O)(=O)c2ccccc2)c2ccccc12)C1CCCC1 [Compound 109, N-butyl-N-(2-(2-(((2-fluoropyridin-3-yl)methyl)((1-(phenylsulfonyl)-1H-indol-3-yl)methyl)amino)ethoxy)ethyl)cyclopentanamine] | 86.3 | 9.6 | 1 | 207 | 7.8 |  | 11.5 |  |
| CN(CCCCCN(Cc1ccnc(F)c1)Cc1cn(S(=O)(=O)c2ccccc2)c2ccccc12)C1CCCCC1 [Compound 53, N1-cyclohexyl-N5-((2-fluoropyridin-4-yl)methyl)-N1-methyl-N5-((1-(phenylsulfonyl)-1H-indol-3-yl)methyl)pentane-1,5-diamine] | 92.7 | 5.2 | 0 | 115 | 91.6 | 15.2 | 8.4 |  |
| CN(CCCCN(Cc1cccnc1F)Cc1cn(S(=O)(=O)c2ccccc2)c2ccccc12)C1CCCCCCC1 [Compound 76, N′-cyclooctyl-N^4-((2-fluoropyridin-3-yl)methyl)-N′-methyl-N^4-((1-(phenylsulfonyl)-1H-indol-3-yl)methyl)butane-1,4-diamine] | 92.8 | 4.6 | 1 | 154 |  |  | 7.9 |  |

Further compounds by falling IC50 (TNFα), results first:

| BINDING IL4 % Neutra at 100 μM (IL-4) [%] | IC50 (IL-4) [µM] | BINDING IL6 % Neutra at 100 μM (IL-6) [%] | Displacement (%) (TNFa/TNFRI interaction) | BINDING IL13 % Neutra at 100 μM (IL-13) [%] | IC50 (IL-13) [µM] | IC50 (TNFα) [µM] | Displacement EC50 TNFa in presence of compound: Difference (TNFa/TNFRI interaction) [ng/mL] | Compound |
| --- | --- | --- | --- | --- | --- | --- | --- | --- |
| 96 | 4.7 | 23.7 | 159 | 94.8 | > 50 | 14.7 | 4.2 | CN(CCCCCN(Cc1ccncc1)Cc1cn(-c2cccc(C(F)(F)F)c2)c2ccccc12)C1CCCCC1 [Compound 39] |
| 95.5 | 8.4 | −17.2 | 107 | 66 | > 50 | 14.1 |  | O=S(=O)(c1ccccc1)n1cc(CN(CCNC2CCCCC2)Cc2ccncc2)c2ccccc21 [Compound 26] |
| 98.8 | 3.1 | 3.6 | 158 | 85.3 | > 50 | 13.5 | 6.3 | CN(CCCCN(Cc1ccncc1)Cc1cn(-c2cccc(C(F)(F)F)c2)c2ccccc12)C1CCCCC1 [Compound 24] |
| 91.9 | 2.6 | 0 | 124 | 93.4 | 10.2 | 13.2 |  | O=S(=O)(c1ccccc1)n1cc(CN(CCCCCNC2CCCCC2)Cc2ccc(F)nc2)c2ccccc21 [Compound 56] |
| 96.1 | 5.6 | −21.5 | 181 | 97.1 | > 50 | 4.6 |  | CN(CCCCCN(Cc1ccncc1)Cc1cn(S(=O)(=O)c2ccccc2)c2ccccc12)C1CCCCC1 [Compound 35] |
